Data: patent EP0170430A1, “Heterocyclic pharmaceutical compounds, preparation and use” (THE WELLCOME FOUNDATION LIMITED, priority 1984, dated 1986)
Where a name gives a salt, the structure may show the parent alone.

What was measured:
[1] = test system: tetrabenazine induced sedation; experiment: Antitetrabenazine test (prevention of tetrabenazine induced sedation); type: in vivo; conditions: Mus musculus; CD1 male mice; compound ip 30 min before tetrabenazine hydrochloride ip; exploratory behavior scored 30 min later; amount required to reverse the tetrabenazine effects in 50 percent of the animals
Experimental: Prevention of tetrabenazine induced sedation was measured using a modification of the method of Vernier, et al., First Hahnemann Symposium on Psychosomatic Medicine, ed. Nodim and Moyer, pub. Lea and Febiger, Philadelphia, 1962.
Mice, three groups of 12 CD1 males each, were injected intraperitoneally (ip) with a solution of compound (IA) or compound (IB) or with a saline solution alone. Thirty minutes later each of the mice was injected (ip, 35 mg/kg) with a solution containing tetrabenazine hydrochloride. Thirty minutes after the injection of tetrabenazine each mouse was examined for its level of exploratory behavior which was scored on a modification of the arbitrary scale defined by Vernier, et. al. The results reported in Table as the ED50 values are the amounts of the test compounds required to reverse the tetrabenazine effects in 50 percent of the animals tested.

Acute toxicity (LD50) = conditions: in vivo, ip, in the mouse, calculated as the hydrochloride salt

C[C@@H]1NC(C)(C)CO[C@@]1(O)c1ccc(F)cc1 (relative stereo) [IB, cis-2-(4-Fluorophenyl)-3,5,5-trimethyl-2-morpholinol hydrochloride]
ED50 [1]: 14 mg/kg
LD50 (Acute toxicity (LD50)): ~160 mg/kg

C[C@@H]1NC(C)(C)CO[C@@]1(O)c1ccccc1 (relative stereo) [IA, cis-3,5,5-Trimethyl-2-phenyl-2-morpholinol hydrochloride]
ED50 [1]: 18 mg/kg
LD50 (Acute toxicity (LD50)): ~160 mg/kg
